This assay deals with Recombinant human ULK1 (1-649) (Homo sapiens (Human), UniProt O75385). Kind of assay: ULK1 ADP Glo kinase activity assay (MBP substrate). To be noted: 25° C., 40 minutes, read-out: ULK1 biochemical IC50. Here is the method:
Recombinant human ULK1 (1-649) protein expressed in Sf9 insect cells was obtained from SignalChem (Vancouver, BC), catalog #U01-11G. Active kinase was purified via N-terminal GST tag to >85% purity.
ADP GLO Kinase Assay Reagents were obtained from Promega Corp (Madison, WI), catalog #V9104.
MBP (myelin basic protein) substrate, bovine, purified, was obtained from Sigma (St. Louis, MO), catalog #M1891.
ULK1 inhibitor potency was determined using the luminescent ADP Glo Kinase Assay (Promega), a universal ADP detection system that measures kinase activity by quantifying the amount of ADP produced during a kinase reaction. ULK1 kinase reactions are performed in a standard 96-well microplate (20 uL reaction volume) at 25° C. for 40 minutes in the presence or absence of the test compound (12-point dilution series starting at 10 uM). Addition of MBP substrate and ATP initiates the kinase reaction.
The standard ADP Glo assay is performed in two steps. In step one, following the kinase reaction, an equal volume of ADP-Glo™ Reagent (20 uL) is added to terminate the kinase reaction and deplete the remaining ATP. In the second step, the Kinase Detection Reagent (10 uL) is added to simultaneously convert ADP to ATP and allow the newly synthesized ATP to be measured using a luciferase/luciferin reaction. Step two of the ADP Glo assay is performed in a white 384-well plate (20 uL final volume). Thirty minutes after the addition of the Detection reagent, light generated from the luciferase reaction is measured (1 second exposure) using a microplate compatible luminometer (CLARIOstar, BMG Labtech).
Inhibition of ULK1 kinase activity is determined for each test compound by comparison to DMSO only control wells. Inhibitor IC50 was calculated by plotting the change in luminescence after 30 minutes (response) versus inhibitor concentration (in log molar) then applying the four-parameter variable slope curve fit (GraphPad Prism). Inhibition of ULK1 in biochemical assay is found in Table 3.
(In ADP-Glo the light output rises with the ADP produced.)

Structures are written as SMILES.

Recombinant human ULK1 (1-649), sequence (O75385 1-649): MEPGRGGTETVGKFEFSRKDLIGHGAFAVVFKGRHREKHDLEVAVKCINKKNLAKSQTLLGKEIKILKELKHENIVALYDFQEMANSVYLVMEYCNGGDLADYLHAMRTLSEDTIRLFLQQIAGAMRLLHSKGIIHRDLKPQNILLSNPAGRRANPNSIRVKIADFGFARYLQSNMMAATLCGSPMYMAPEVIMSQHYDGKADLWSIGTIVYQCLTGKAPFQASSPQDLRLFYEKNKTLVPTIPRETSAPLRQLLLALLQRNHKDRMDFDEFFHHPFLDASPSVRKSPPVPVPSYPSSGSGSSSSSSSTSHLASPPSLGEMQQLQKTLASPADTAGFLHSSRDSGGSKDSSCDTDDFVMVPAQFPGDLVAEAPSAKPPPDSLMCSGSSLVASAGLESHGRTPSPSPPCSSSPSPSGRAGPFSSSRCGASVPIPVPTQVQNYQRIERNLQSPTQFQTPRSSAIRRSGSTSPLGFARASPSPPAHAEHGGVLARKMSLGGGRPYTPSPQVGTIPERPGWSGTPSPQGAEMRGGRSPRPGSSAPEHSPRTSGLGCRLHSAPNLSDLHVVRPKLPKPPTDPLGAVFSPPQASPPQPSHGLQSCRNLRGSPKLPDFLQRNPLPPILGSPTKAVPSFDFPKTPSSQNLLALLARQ

Turning to `NC(=O)c1csc(-c2nc(Nc3cc4c(cc3Cl)CNCC4)ncc2C(F)(F)F)c1` [Example 1, 5-(2-((7-chloro-1,2,3,4-tetrahydroisoquinolin-6-yl)amino)-5-(trifluoromethyl)pyrimidin-4-yl)thiophene-3-carboxamide], the half-maximal inhibitory concentration (IC50) (as a rule, the concentration needed to halve the response being measured) is not above 0.01 µM.

Take `CN(C)C(=O)c1csc(-c2nc(Nc3cc4c(cc3Cl)CNCC4)ncc2C(F)(F)F)c1` [Example 2, 5-(2-((7-chloro-1,2,3,4-tetrahydroisoquinolin-6-yl)amino)-5-(trifluoromethyl)pyrimidin-4-yl)-N,N-dimethylthiophene-3-carboxamide]: the half-inhibitory concentration (IC50) fell in the range of 0.01 to 0.05 µM.

For `CN(C)C(=O)c1ccc(-c2nc(Nc3cc4c(cc3Cl)CNCC4)ncc2C(F)(F)F)s1` [Example 3, 5-(2-((7-chloro-1,2,3,4-tetrahydroisoquinolin-6-yl)amino)-5-(trifluoromethyl)pyrimidin-4-yl)-N,N-dimethylthiophene-2-carboxamide], the IC50 is not above 0.01 µM.

As for `O=C1NCCc2sc(-c3nc(Nc4cc5c(cc4Cl)CNCC5)ncc3C(F)(F)F)cc21` [Example 4, 2-(2-((7-chloro-1,2,3,4-tetrahydroisoquinolin-6-yl)amino)-5-(trifluoromethyl)pyrimidin-4-yl)-6,7-dihydrothieno[3,2-c]pyridin-4(5H)-one], the half-maximal inhibitory concentration (IC50) was not above 0.01 µM. For `NC(=O)c1csc(-c2nc(Nc3cc4c(cc3Cl)CN(C3CNC3)CC4)ncc2C(F)(F)F)c1` [Example 5, 5-(2-((2-(azetidin-3-yl)-7-chloro-1,2,3,4-tetrahydroisoquinolin-6-yl)amino)-5-(trifluoromethyl)pyrimidin-4-yl)thiophene-3-carboxamide], the IC50 was not above 0.01 µM.

As for `CNC(=O)c1csc(-c2nc(Nc3cc4c(cc3Cl)CNCC4)ncc2C(F)(F)F)c1` [Example 6, 5-(2-((7-chloro-1,2,3,4-tetrahydroisoquinolin-6-yl)amino)-5-(trifluoromethyl)pyrimidin-4-yl)-N-methylthiophene-3-carboxamide], the IC50 was 0.05 to 0.1 µM. With `NC(=O)c1csc(-c2nc(Nc3cc4c(cc3Cl)CNC4)ncc2C(F)(F)F)c1` [Example 7, 5-(2-((6-chloroisoindolin-5-yl)amino)-5-(trifluoromethyl)pyrimidin-4-yl)thiophene-3-carboxamide], the IC50 was not above 0.01 µM. With `FC(F)(F)c1cnc(Nc2cc3c(cc2Cl)CNCC3)nc1-c1cc(C2=NCCO2)cs1` [Example 8, 7-chloro-N-(4-(4-(4,5-dihydrooxazol-2-yl)thiophen-2-yl)-5-(trifluoromethyl)pyrimidin-2-yl)-1,2,3,4-tetrahydroisoquinolin-6-amine], the half-inhibitory concentration (IC50) fell in the range of 0.01 to 0.05 µM. For the compound `CCc1cc2c(cc1Nc1ncc(C(F)(F)F)c(-c3cc(C(N)=O)cs3)n1)CCNC2` [Example 9, 5-(2-((7-ethyl-1,2,3,4-tetrahydroisoquinolin-6-yl)amino)-5-(trifluoromethyl)pyrimidin-4-yl)thiophene-3-carboxamide], the IC50 was not above 0.01 µM. Regarding `NC(=O)c1csc(-c2nc(Nc3cc4c(cc3C3CC3)CNCC4)ncc2C(F)(F)F)c1` [Example 10, 5-(2-((7-cyclopropyl-1,2,3,4-tetrahydroisoquinolin-6-yl)amino)-5-(trifluoromethyl)pyrimidin-4-yl)thiophene-3-carboxamide], the IC50 is not above 0.01 µM. As for `CN1CC(N2CCc3cc(Nc4ncc(C(F)(F)F)c(-c5cc(C(N)=O)cs5)n4)c(Cl)cc3C2)C1` [Example 11, 5-(2-((7-chloro-2-(1-methylazetidin-3-yl)-1,2,3,4-tetrahydroisoquinolin-6-yl)amino)-5-(trifluoromethyl)pyrimidin-4-yl)thiophene-3-carboxamide], the IC50 is 0.01 to 0.05 µM. For the compound `CN1CC(N2Cc3cc(Cl)c(Nc4ncc(C(F)(F)F)c(-c5cc(C(N)=O)cs5)n4)cc3C2)C1` [Example 12, 5-(2-((6-chloro-2-(1-methylazetidin-3-yl)isoindolin-5-yl)amino)-5-(trifluoromethyl)pyrimidin-4-yl)thiophene-3-carboxamide], the IC50 is not above 0.01 µM. On to `CCc1cc2c(cc1Nc1ncc(C(F)(F)F)c(-c3cc(C(N)=O)cs3)n1)CCN(C)C2` [Example 13, 5-(2-((7-ethyl-2-methyl-1,2,3,4-tetrahydroisoquinolin-6-yl)amino)-5-(trifluoromethyl)pyrimidin-4-yl)thiophene-3-carboxamide], for which the IC50 is not above 0.01 µM. With `CN1CCc2cc(Nc3ncc(C(F)(F)F)c(-c4cc(C(N)=O)cs4)n3)c(C3CC3)cc2C1` [Example 14, 5-(2-((7-cyclopropyl-2-methyl-1,2,3,4-tetrahydroisoquinolin-6-yl)amino)-5-(trifluoromethyl)pyrimidin-4-yl)thiophene-3-carboxamide] the figure was not above 0.01 µM; with `Nc1csc(-c2nc(Nc3cc4c(cc3Cl)CNCC4)ncc2C(F)(F)F)c1` [Example 15, N-(4-(4-aminothiophen-2-yl)-5-(trifluoromethyl)pyrimidin-2-yl)-7-chloro-1,2,3,4-tetrahydroisoquinolin-6-amine], 0.01 to 0.05 µM. The figure for `CS(=O)(=O)Nc1csc(-c2nc(Nc3cc4c(cc3Cl)CNCC4)ncc2C(F)(F)F)c1` [Example 16, N-(5-(2-((7-chloro-1,2,3,4-tetrahydroisoquinolin-6-yl)amino)-5-(trifluoromethyl)pyrimidin-4-yl)thiophen-3-yl)methanesulfonamide] is not above 0.01 µM; for `CN1Cc2cc(Cl)c(Nc3ncc(C(F)(F)F)c(-c4cc(C(N)=O)cs4)n3)cc2C1` [Example 17, 5-(2-((6-Chloro-2-methylisoindolin-5-yl)amino)-5-(trifluoromethyl)pyrimidin-4-yl)thiophene-3-carboxamide] it is not above 0.01 µM.

Consider `FC(F)(F)c1cnc(Nc2cc3c(cc2Cl)CNCC3)nc1-c1cc(-c2ncco2)cs1` [Example 18, 7-Chloro-N-(4-(4-(oxazol-2-yl)thiophen-2-yl)-5-(trifluoromethyl)pyrimidin-2-yl)-1,2,3,4-tetrahydroisoquinolin-6-amine], for which the IC50 lay within 0.01 to 0.05 µM. `CN1Cc2cc(Nc3ncc(C(F)(F)F)c(-c4cc(C(N)=O)cs4)n3)c(C3CC3)cc2C1` [Example 19, 5-(2-((6-Cyclopropyl-2-methylisoindolin-5-yl)amino)-5-(trifluoromethyl)pyrimidin-4-yl)thiophene-3-carboxamide]: the IC50 was not above 0.01 µM. Consider `CCc1cc2c(cc1Nc1ncc(C(F)(F)F)c(-c3cc(C(N)=O)cs3)n1)CN(C)C2` [Example 20, 5-(2-((6-Ethyl-2-methylisoindolin-5-yl)amino)-5-(trifluoromethyl)pyrimidin-4-yl)thiophene-3-carboxamide], for which the IC50 fell in the range of 0.01 to 0.05 µM. In the case of `CN1CCc2sc(-c3nc(Nc4cc5c(cc4Cl)CNCC5)ncc3C(F)(F)F)cc2C1=O` [Example 21, 2-(2-((7-Chloro-1,2,3,4-tetrahydroisoquinolin-6-yl)amino)-5-(trifluoromethyl)pyrimidin-4-yl)-5-methyl-6,7-dihydrothieno[3,2-c]pyridin-4(5H)-one], the IC50 is not above 0.01 µM. Consider `CCN1CCc2sc(-c3nc(Nc4cc5c(cc4Cl)CNCC5)ncc3C(F)(F)F)cc2C1=O` [Example 22, 2-(2-((7-chloro-1,2,3,4-tetrahydroisoquinolin-6-yl)amino)-5-(trifluoromethyl)pyrimidin-4-yl)-5-ethyl-6,7-dihydrothieno[3,2-c]pyridin-4(5H)-one], for which the IC50 was not above 0.01 µM. With `O=c1[nH]ccc2sc(-c3nc(Nc4cc5c(cc4Cl)CNCC5)ncc3C(F)(F)F)cc12` [Example 23, 2-(2-((7-Chloro-1,2,3,4-tetrahydroisoquinolin-6-yl)amino)-5-(trifluoromethyl)pyrimidin-4-yl)thieno[3,2-c]pyridin-4(5H)-one] the figure was not above 0.01 µM; with `O=c1[nH]ncc2sc(-c3nc(Nc4cc5c(cc4Cl)CNCC5)ncc3C(F)(F)F)cc12` [Example 24, 2-(2-((7-Chloro-1,2,3,4-tetrahydroisoquinolin-6-yl)amino)-5-(trifluoromethyl)pyrimidin-4-yl)thieno[2,3-d]pyridazin-4(5H)-one], 0.01 to 0.05 µM.

For the compound `N#Cc1csc(-c2nc(Nc3cc4c(cc3Cl)CNCC4)ncc2C(F)(F)F)c1` [Example 25, 5-(2-((7-Chloro-1,2,3,4-tetrahydroisoquinolin-6-yl)amino)-5-(trifluoromethyl)pyrimidin-4-yl)thiophene-3-carbonitrile], the IC50 was in the range of 0.01 to 0.05 µM. In the case of `NC(=O)c1csc(-c2nc(Nc3cc4c(cc3Cl)CNCC4)ncc2C(N)=O)c1` [Example 26, 4-(4-Carbamoylthiophen-2-yl)-2-((7-chloro-1,2,3,4-tetrahydroisoquinolin-6-yl)amino)pyrimidine-5-carboxamide], the IC50 is more than 0.5 µM. Turning to `NS(=O)(=O)c1csc(-c2nc(Nc3cc4c(cc3Cl)CNCC4)ncc2C(F)(F)F)c1` [Example 27, 5-(2-((7-Chloro-1,2,3,4-tetrahydroisoquinolin-6-yl)amino)-5-(trifluoromethyl)pyrimidin-4-yl)thiophene-3-sulfonamide], the concentration for half-maximal inhibition (IC50) is not above 0.01 µM.
